Reference: US20230227406A1, “MODULATORS OF E3 LIGASES” (Rekindle Therapeutics Inc., priority 2020, published 2023)

Experiments:
PD-L1 = experiment: Western blot of PD-L1 in BT-20 cells; type: cell-based, human; conditions: indicated doses
From the text: The data presented here are consistent with the previous replicate in Hs578T cells, and the observation is preserved in another TNBC cell line, BT-20. COMPOUND 1 increases PD-L1 levels and the glycosylated PD-L1/non-glycosylated PD-L1 ratio. Methods are the same as the previous replicate, using the indicated doses.
The data presented here are consistent with the previous replicate in Hs578T cells. COMPOUND 6 reduces the PD-L1/vinculin loading control ratio in BT-20 cells. […] Methods are the same as the previous replicate, using the indicated doses.

WWP1 [1] = molecular target: T1, WWP1 (Homo sapiens, UniProt Q9H0M0); experiment: WWP1 MALDI-MS ubiquitin depletion assay (auto-ubiquitination); type: biochemical; conditions: 30 min pre-incubation, 90 minutes at 37° C.
T1 construct: purchased Ubiquigent 63-0034-025/30033/D
Method: Modulators designed in these ways were tested for HECT domain E3 ligase activity in a MALDI TOF assay of auto-ubiquitination (De Cesare et al, Cell Chem. Biol, 2018, 25, 1117)
UBE1 (E-305 Boston Biochem), UBE2D1 (E2-616 Boston Biochem), WWP1 (Ubiquigent #63-0034-025/30033/D), ubiquitin variants (Boston Biochem; ubiquitin: U-100H; WT-His6-Ub: U-530; K27R-His6-Ub:UM-HK27R; K27O-His6-Ub: UM-HK27O), alpha-cyano-4-hydroxycinnamic acid (CHCA), ATP, trifluoroacetic acid (Millipore Sigma, St. Louis, Mo.), 384-well round-bottom polypropylene microplates (781280, Greiner, Stonehouse, UK), 384-well Anchorchip MALDI targets and Peptide Calibration Standard II (Bruker Daltonics, Billerica, Mass.).
Protocol: The WWP1 ubiquitin depletion assay consists of recombinant UBE1 (5 nM), UBE2D1 conjugating enzyme (60 nM) and WWP1 ligase (50 nM) in a 10 mM HEPES pH 8.0 containing 0.1 mg/mL BSA, 10 mM MgCl2, 1 mM ATP and 1500 nM ubiquitin. Screening was performed by dispensing 3.5 μL of an enzyme solution containing UBE1 (10 nM), UBE2D1 (120 nM), WWP1 (100 nM), ubiquitin ([…]) to a 384-well round bottom polypropylene plates followed by incubation at 37° C. for 30 min. Reactions were initiated by the addition of 3.5 μL of an ATP solution (2000 nM) then incubated at 37° C. for 90 minutes before being quenched by the addition of 5 μL of a 50 mM EDTA solution containing 750 nM of a ubiquitin labelled with a histidine expression tag (m/z=9460.0 Da).
For detection of ubiquitin and the ubiquitin-6His internal standards, 50 nL of quenched reaction was dispensed onto a 384-well Anchorchip MALDI target plate (Bruker) pre-coated with a uniform layer of CHCA crystals immediately followed by 200 nL of a 3 mg/mL CHCA matrix solution (6 mg of CHCA dissolved in 0.7 mL of 100% ethanol and 1.3 mL of 0.31% aqueous TFA) using a TTP Labtech Mosquito liquid handler. Spectra for all reactions were acquired on a Bruker AutoFlex II in positive linear TOF mode from 1000 laser shots with ion suppression below 4000 Da. Spectra were analyzed for response using a centroid peak-fitting algorithm to quantify ubiquitin (m/z=8564.0 Da) and ubiquitin-6His (m/z=9460.0 Da) followed taking the ratio of intensities of ubiquitin and the ubiquitin-6His internal standard.
For compound screening, 140 nL of diluted compound in 100% DMSO was added to the WWP1 enzyme solution and pre-incubated for 30 minutes prior to reaction initiation.

[2] = system: phosphorylated AKT and phosphorylated Ribosomal Protein S6; experiment: Western blot of AKT and S6 phosphorylation in BT-20 cells; type: cell-based, human; conditions: indicated doses
From the text: The data presented here are consistent with the previous replicate in Hs578T cells, and the observation is preserved in another TNBC cell line, BT-20. COMPOUND 1 reduces the phospho-AKT/vinculin loading control and phospho-S6/total S6 ratios. Methods are the same as the previous replicate, using the indicated doses.
The data presented here are consistent with the previous replicate in Hs578T cells. COMPOUND 6 reduces the phospho-AKT/vinculin loading control and phospho-S6/total S6 ratios in BT-20 cells. Methods are the same as the previous replicate, using the indicated doses.

WWP1 [3] = molecular target: T1, WWP1; experiment: In vitro WWP1-dependent ubiquitination of PTEN, western blot and LC-MS/MS; type: biochemical; conditions: 2 hours, indicated doses of inhibitor
Method: In vitro ubiquitination reactions were carried out for 2 hours using the indicated doses of inhibitor. Increasing doses of inhibitor block PTEN substrate ubiquitination, which correlates with remaining free ubiquitin. The “0” concentration is DMSO only (0.5%, same as was used for compound doses). No E1 and No E3 negative controls are present (only free ubiquitin present). Analysis occurred by western blot using an anti-ubiquitin antibody. A fraction of these samples was digested with Trypsin/LysC and labeled with TMT quantification reagents prior to LC-MS/MS analysis.
In vitro ubiquitination reactions were carried out for 2 hours using the indicated doses of inhibitor. Increasing doses of inhibitor block PTEN substrate ubiquitination, which correlates with remaining free ubiquitin. The “0” concentration is DMSO only (0.5%, same as was used for compound doses). No E1 and No E3 negative controls are present (only free ubiquitin present). Analysis occurred by western blot using an anti-ubiquitin antibody.

T1 sequence (Q9H0M0 whole entry): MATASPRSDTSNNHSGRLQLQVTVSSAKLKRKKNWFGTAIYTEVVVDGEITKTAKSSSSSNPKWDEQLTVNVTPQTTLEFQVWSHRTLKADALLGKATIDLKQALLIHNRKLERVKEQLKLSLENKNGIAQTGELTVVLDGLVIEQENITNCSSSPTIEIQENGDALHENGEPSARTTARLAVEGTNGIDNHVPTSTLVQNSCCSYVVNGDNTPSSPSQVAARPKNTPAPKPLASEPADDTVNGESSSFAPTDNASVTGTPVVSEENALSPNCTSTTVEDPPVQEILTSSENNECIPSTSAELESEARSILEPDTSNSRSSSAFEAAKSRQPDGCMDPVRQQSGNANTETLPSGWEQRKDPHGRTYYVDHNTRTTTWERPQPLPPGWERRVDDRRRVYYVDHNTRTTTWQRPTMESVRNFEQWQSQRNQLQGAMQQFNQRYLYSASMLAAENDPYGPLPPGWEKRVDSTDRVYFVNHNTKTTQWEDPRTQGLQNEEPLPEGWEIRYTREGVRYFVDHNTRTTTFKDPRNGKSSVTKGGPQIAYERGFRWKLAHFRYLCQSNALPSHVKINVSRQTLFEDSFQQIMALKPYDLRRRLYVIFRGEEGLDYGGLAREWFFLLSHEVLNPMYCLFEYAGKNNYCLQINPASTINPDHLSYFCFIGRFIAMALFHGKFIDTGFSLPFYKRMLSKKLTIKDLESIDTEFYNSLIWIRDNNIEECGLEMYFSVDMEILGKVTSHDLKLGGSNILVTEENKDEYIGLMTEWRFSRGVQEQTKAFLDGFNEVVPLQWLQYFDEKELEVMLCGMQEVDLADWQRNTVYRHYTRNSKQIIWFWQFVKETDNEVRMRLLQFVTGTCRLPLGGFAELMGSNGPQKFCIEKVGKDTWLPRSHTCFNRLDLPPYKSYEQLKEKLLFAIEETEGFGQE

| Structure (SMILES) | PD-L1 glycosylation (glycosylated/non-glycosylated PD-L1 ratio) (PD-L1) | PD-L1 levels (PD-L1/vinculin loading control ratio) (PD-L1) | IC50 (WWP1 [1]) [µM] | phospho-AKT/vinculin loading control ratio [2] | phospho-S6/total S6 ratio [2] | WWP1 dependent ubiquitination of PTEN (western blot, anti-ubiquitin) (WWP1 [3]) |
| --- | --- | --- | --- | --- | --- | --- |
| C#Cc1ccc2c(C=O)cn(-c3ccccc3)c2c1 [Compound 1, 6-ethynyl-1-phenyl-1H-indole-3-carbaldehyde] | increases | increases | 5 | reduces | reduces | – |
| C#CCN(CCO)C(=O)c1ccc2c(Cc3c[nH]c4ccccc34)c[nH]c2c1 [Compound 7, 3-((1H-indol-3-yl)methyl)-N-(2-hydroxyethyl)-N-(prop-2-yn-1-yl)-1H-indole-6-carboxamide] | – | – | 15 | – | – | Inhibits WWP1-Dependent Ubiquitination of PTEN, in a Dose-Dependent Manner |
| C#CCNC(=O)c1ccc2c(Cc3c[nH]c4ccccc34)c[nH]c2c1 [Compound 6, 3-((1H-indol-3-yl)methyl)-N-(prop-2-yn-1-yl)-1H-indole-6-carboxamide] | probably reduces | reduces | 32 | reduces | reduces | – |
